≈ marks a conversion by molar mass, not a printed value. Non-standard residues stand in square brackets, D forms with d. Residues, ends and D or L forms follow the SMILES beside them. Bip = N[C@@H](Cc1ccc(-c2ccccc2)cc1)C(=O)O
Assays:
[1] = HPLC retention time (measure of peptide hydrophobicity); type: physicochemical; details: chromatographic, Waters C8 symmetry hydrophobic column, as described in ref 34; used as indicator of peptide hydrophobicity
From the text: In the membrane-bound LL-37 structure determined by 3D NMR spectroscopy, a hydrophobic gap exists (Figure 1A). The location of a hydrophilic S9 on the hydrophobic surface of LL-37 splits the long helix into two hydrophobic domains (gold sticks). The SK-24 peptide we identified here corresponds to the long hydrophobic domain [26]. The amino acid sequence of SK-24, along with LL-37 and its derived antimicrobial peptides, is depicted in Figure 1B. Peptide parameters, including net charge, hydrophobic content, Boman index, GRAVY, hydrophobicity, and hydrophobic moment of each peptide, were calculated using online tools, such as the APD [8] and HeliQuest (Table 1). Except for the shortest RI-10 (net charge +3), LL-37 and its other derived peptides have net charges +5 or +6, above the average net charge (+3.3) of natural antimicrobial peptides registered in the APD [8, 35, 36]. Overall, the hydrophobic percentages (Pho) of these peptides calculated in the APD are proportional to the hydrophobicity and hydrophobic moment calculated by HeliQuest in Table 1. Of note, LL-37 has the highest net charge (+6) and Boman index but the lowest Pho%, GRAVY, and hydrophobic moment.
All peptides were chemically synthesized and purified to >95% (Genemed Synthesis, San Antonio, TX, USA). The quality of each peptide was determined based on mass spectrometry (MS) and high-performance liquid chromatography (HPLC). Peptide stock solutions were freshly made by solubilizing in autoclaved distilled water, and their concentrations were quantitated using UV spectroscopy based on the absorbance difference at 215 and 225 nm as described. Peptide retention time was measured on a Waters C8 symmetry hydrophobic column as described. Other chemicals were purchased from Sigma (St. Louis, MO, USA) unless specified.

[2] = tested on: E. faecium V284-17; type: cell-based, Enterococcus faecium; details: V284-17
[3] = tested on: S. aureus USA300; type: cell-based, Staphylococcus aureus
Method: (§1) The antibiotic-resistant pathogens used in this study include the Gram-positive bacteria Enterococcus faecium V286-17 and Staphylococcus aureus USA300 LAC and the Gram-negative bacteria Klebsiella pneumoniae E406-17, Acinetobacter baumannii B28-16, Pseudomonas aeruginosa E411-17, and Escherichia coli E423-17. All bacteria were cultivated in tryptic soy broth (TSB) at 37 °C, 220 rpm.
(§2) The antibacterial activity of peptides was evaluated using a standard broth microdilution protocol with minor modifications. In brief, peptides were made at various concentrations, 10 μL per well in a 96-well polystyrene microplate. Logarithmic phase bacterial cultures (i.e., optical density (OD) at 600 nm ≈ 0.5) were diluted to 0.001 OD, and aliquots of 90 μL were added to each well. Untreated bacterial culture and medium were included as positive and negative controls, respectively. Plates were incubated at 37 °C overnight and read at 630 nm using a ChroMate Microplate Reader (Awareness Technology, Palm City, FL, USA). […] Our previously designed peptide 17BIPHE2 [32] was included as a positive control, and RI-10, a peptide without antibacterial activity in rich media, was utilized as a negative control.

[4] = tested on: K. pneumoniae E406-17; type: cell-based, Klebsiella pneumoniae; details: E406-17
Method: as §1, §2

[5] = tested on: A. baumannii B28-16; type: cell-based, Acinetobacter baumannii
Method: as §1, §2

[6] = tested on: P. aeruginosa E411-17; type: cell-based, Pseudomonas aeruginosa; details: E411-17
Method: as §1, §2

[7] = tested on: A. baumannii B28-16 preformed biofilms; test: Disruption of preformed biofilms (XTT); type: cell-based, Acinetobacter baumannii
Method: The antibiofilm activities of peptides against the preformed biofilms of A. baumannii B28-16 and S. aureus USA300 LAC were evaluated as follows. Bacteria in the logarithmic growth phase were adjusted to a cell density of 10^5 colony forming unit (CFU)/mL. Two hundred microliter cells were seeded into each well of the 96-well plates. The plates were incubated at 37 °C to allow for the formation of biofilm for 24, 48, and 72 h, respectively. The planktonic cells were then removed, followed by a wash. The biofilms were then treated with 20 µL of 10× two-fold diluted peptides and 180 µL of fresh TSB media for 24 h at 37 °C. Cultures treated with water without peptide served as the positive control, and media treated with water was used as the negative control. To quantify the antibiofilm activity of the peptides, the XTT [2, 3-bis (2-methyloxy-4-nitro-5-sulfophenyl)-2H-tertazolium-5-carboxanilide] assay staining method was used to quantitate the live cells. Absorbance was read at 450 nm using a ChroMate microliter plate reader. The percentage biofilm growth for the peptide was plotted by assuming 100% biofilm growth in untreated bacterial control wells. Data were represented as mean ± standard deviation (SD). The data are statistically significant at p < 0.05. Plots were generated using GraphPad Prism v7 (GraphPad Software, San Diego, CA, USA).

[8] = tested on: Human red blood cells; test: Hemolytic assay; type: cell-based; details: red cells of human, 1 h
Method: Human red blood cells (hRBCs, the UNMC Blood Bank) were washed three to five times with saline (Fisher Scientific, Waltham, MA, USA) at 800 g for 10 min each time, until the supernatant was clear. The supernatant was discarded, and hRBCs were suspended in saline at a final density of 2%. Ninety microliters of hRBC suspensions were added to each well of 96-well plates containing 10 µL of 10× serially diluted peptides. After incubation at 37 °C for 1 h, the plates were centrifuged at 1500 rpm for 5 min. About 80 µL of the supernatant was carefully pipetted to a new 96-well microplate and read at 545 nm to measure the amount of hemoglobin released. The positive control was 1% Triton X-100, and the negative control was saline. The percentage of hRBC lysis was calculated based on the hemoglobin released.

[9] = tested on: S. aureus USA300 LAC preformed biofilms; details: S. aureus USA300 LAC and other clinical strains (USA200, USA400, Mu50); cited from earlier work
Method: Here, we compared the antibiofilm activity of SK-24 with that of GF-17, GI-20, and 17BIPHE2 against the 24 h preformed biofilms of S. aureus USA300. […] Only SK-24 a ...

tHPLC (HPLC retention time) [1]: 10.753 min
MIC [2]: 2 µM (≈ 4.51 µg/mL)
MIC [3]: 4 µM (≈ 9.02 µg/mL)
MIC [4]: 4 to 8 µM
MIC [5]: 4 to 8 µM
MIC [6]: 8 µM (≈ 18 µg/mL)
Compound: CC(C)C[C@H](NC(=O)[C@H](CC(N)=O)NC(=O)[C@H](CCCNC(=N)N)NC(=O)[C@@H](CC(C)C)NC(=O)[C@H](Cc1ccc(-c2ccccc2)cc1)NC(=O)[C@H](CC(=O)O)NC(=O)[C@H](CCCCN)NC(=O)[C@@H](CC(C)C)NC(=O)[C@H](CCCNC(=N)N)NC(=O)[C@H](CCC(N)=O)NC(=O)[C@@H](NC(=O)[C@@H](CC(C)C)NC(=O)[C@H](CCCNC(=N)N)NC(=O)[C@H](CCCCN)NC(=O)[C@H](Cc1ccc(-c2ccccc2)cc1)NC(=O)CN)C(C)C)C(=O)N[C@H](C(N)=O)C(C)C [Peptide 17BIPHE2] (H-G[Bip]KR[dL]VQR[dL]KD[Bip][dL]RNLV-NH2; N-terminus assumed)
Biofilm disruption ([7]; 72 h preformed biofilms, peptide 64 μM, highest concentration tested): ~ 70%
Disruption of 48 h biofilms ([7]; biofilms established for 48 h, 24 h treatment): dose-dependent biofilm disruption
Reduction of 24 h biofilms ([7]; biofilms established in 24 h, 24 h treatment): dose-dependent manner
HC50 (50% hemolytic concentration) [8]: ~ 200 µM
Disruption of 24 h preformed biofilms (words, found previously) [9]: highly effective
